Data as given in patent US12427131B2, “Stimulators and/or activators of soluble guanylate cyclase (sGC) in combination with an inhibitor of neutral endopeptidase (NEP inhibitor) and/or an angiotensin AII antagonist and the use thereof” (BAYER PHARMA AKTIENGESELLSCHAFT, priority 2015, dated 2025).

Legend:
conscious rats = experiment: Radiotelemetric measurement of blood pressure and heart rate of conscious rats; type: in vivo, rat
Description: Radiotelemetric Measurement of Blood Pressure and Heart Rate of Conscious Rats
A commercially available telemetry system from Data Sciences International DSI, USA, was employed for the measurements on conscious rats (Wistar strain Unilever/WU or Spontaneous Hypertensive Rat/SHR) described below. The system consists of 3 main components: (1) implantable transmitters (PhysioTel® telemetry transmitter), (2) receivers (PhysioTel® receiver), which are linked via a multiplexer (DSI Data Exchange Matrix) to a (3) data acquisition computer. The telemetry system makes it possible to continuously record blood pressure, heart rate and body motion of conscious animals in their usual habitat.
The studies are conducted on adult female rats with a body weight of >200 g. After transmitter implantation, the experimental animals are housed singly in type III Makrolon® cages. They have free access to standard feed and water. The day/night rhythm in the test laboratory is set by changing the illumination of the room.
The telemetry transmitters used (e.g. PA-C40 HD-S10, DSI) are surgically implanted under aseptic conditions in the experimental animals at least 14 days before the first experimental use.
For the implantation, the fasted animals are anesthetized with isoflurane (IsoFlo®, Abbott, initiation 5%, maintenance 2%) and shaved and disinfected over a large area of their abdomens. After the abdominal cavity has been opened along the linea alba, the liquid-filled measuring catheter of the system is inserted into the descending aorta in the cranial direction above the bifurcation and fixed with tissue glue (Vetbond™, 3M). The transmitter housing is fixed intraperitoneally to the abdominal wall muscle, and the wound is closed layer by layer. Post-operatively, an antibiotic (Ursocyclin® 10%, 60 mg/kg s.c., 0.06 ml/100 g body weight, Serumwerk Bernburg AG, Germany) for infection prophylaxis and an analgesic (Rimadyl®, 4 mg/kg s.c., Pfizer, Germany) are administered.
Unless stated otherwise, the substances to be studied are administered orally to a group of animals in each case (n=6). In accordance with an administration volume of 2 ml/kg of body weight, the test substances are dissolved in suitable solvent mixtures. A solvent-treated group of animals is used as control.
The telemetry measuring system is configured for 24 animals.
Each of the instrumented rats living in the system is assigned a separate receiving antenna (RPC-1 Receiver, DSI). The implanted senders can be activated externally via an installed magnetic switch and are switched to transmission during the pre-run of the experiment. The signals emitted can be detected online by a data acquisition system (Dataquest™ A.R.T. for Windows, DSI or Ponemah, DSI) and processed accordingly.
In the standard procedure, the following are measured for 10-second periods in each case: (1) systolic blood pressure (SBP), (2) diastolic blood pressure (DBP), (3) mean arterial pressure (MAP), (4) heart rate (HR) and (5) activity (ACT). These parameters are measured over 24 hours after administration.
The acquisition of measurements is repeated under computer control at 5-minute intervals. The source data obtained as absolute values are corrected in the diagram with the currently measured barometric pressure (Ambient Pressure Reference Monitor, APR-1, DSI).
After the end of the experiment, the acquired individual data are sorted using the analysis software (Dataquest™ A.R.T. 4.1 Analysis or Ponemah, DSI). The 2 hour time point before substance administration is assumed as the blank value.
The data are smoothed over a presettable period by determination of the means (30 minute mean).

[1] = patients with heart failure, phase III; cited from earlier work
[2] = healthy subjects and hypertensive patients; cited from earlier work
[3] = compound of the formula (6) alone, oral 0.3 mg/kg
[4] = compound of the formula (29) alone, oral 3 mg/kg
[5] = compound of the formula (29) alone, oral 10 mg/kg

## COC(=O)Nc1c(N)nc(-c2nn(Cc3ccccc3F)c3ncc(F)cc23)nc1N [formula (6), methyl {4,6-diamino-2-[5-fluoro-1-(2-fluorobenzyl)-1H-pyrazolo[3,4-b]pyridine-3-yl]pyrimidin-5-yl}carbamate]
Conscious rats; [3]
  decrease in the mean arterial blood pressure: ca. −10%
  heart rate: transient increase in heart rate
Conscious rats; compound of the formula (6) alone, oral dose 0.1 mg/kg
  hemodynamic effects (blood pressure, heart rate): no hemodynamic effects

## C[C@H]([C@H](C(=O)Nc1cc(C(CC(=O)O)C2CC2)ccc1Cl)c1ccc(Cl)cc1)C(F)(F)F (stereo partly drawn) [formula (29), 3-(4-chloro-3-{[(2S,3R)-2-(4-chlorophenyl)-4,4,4-trifluoro-3-methylbutanoyl]amino}phenyl)-3-cyclopropylpropanoic acid]
Conscious rats; compound of the formula (29) alone, oral 1 mg/kg
  heart rate: reflex tachycardia
Conscious rats; [4]
  decrease in the mean arterial blood pressure: ca. −10%
  heart rate: associated reflex tachycardia
Conscious rats; [5]
  decrease in the mean arterial blood pressure: ~15%
  heart rate: associated reflex tachycardia

## trisodium [3-((1S,3R)-1-biphenyl-4-ylmethyl-3-ethoxycarbonyl-1-butylcarbamoyl)propionate-(S)-3′-methyl-2′-(pentanoyl{2″-(tetrazol-5-ylate)biphenyl-4′-ylmethyl}amino)butyrate] hemipentahydrate [LCZ696]
[1]
  risk of death and hospitalization: reduction in the risk of death and hospitalization
[2]
  ANP and cGMP: increase in ANP and cGMP
  renin and angiotensin: compensatory increase in renin and angiotensin
